The source of these data is US12473264B2, “Inhibitors of erythrocyte band 3 tyrosine phosphorylation and uses thereof” (Purdue Research Foundation, priority 2019, dated 2025).

Broadly, the pIC50 is the negative decadic logarithm of the IC50, by convention in mol/L.

Assay [1] addresses SRC (Homo sapiens, UniProt P12931). As to the kind of experiment: ADP-Glo kinase assay, SRC. The format is biochemical. Conditions: FIG. 6B. Here is the method:
(§1) Syk kinase inhibition assays were run on 96-well plates using the ADP-Glo assay kit according to manufacturer's specifications. All kinase reactions were run using Kinase Assay Buffer III supplemented with DTT and MnCl2 as required by the kinase of interest to generate kinase reaction buffer. Stock solutions of kinase inhibitor in DMSO were diluted into 2× kinase reaction buffer and the final concentration of DMSO in each kinase reaction was held below 1%. The total volume of each kinase reaction was 25 μL apportioned as: 5 μL 2× kinase reaction buffer or diluted kinase inhibitor, 5 μL 1 mg/mL (stock) kinase substrate, 10 μL kinase in kinase reaction buffer, and 5 μL 250 μM ATP diluted into kinase reaction buffer. Kinase inhibitors were incubated with kinase and substrate prior to addition of ATP for 20 min at room temperature (RT). After addition of ATP to the wells, the plate was incubated at 37° C. for 30-60 minutes depending on the kinase used. After incubation the plate was cooled to RT for 5 minutes prior to addition of 25 μL ADP-Glo reagent and incubation on a shaker for 40 minutes. […] After 30 min, the luminescence was recorded using a Neo2 plate reader and 1 sec integration of the signal. The background signal was subtracted from all readings and the signal was normalized to the maximum signal obtained in the absence of inhibitor. […]
On the technique in general: In ADP-Glo the light output rises with the ADP produced.

For assay [2], the target named is Lyn A (Homo sapiens, UniProt P07948). The assay is described as follows: ADP-Glo kinase assay, Lyn A. In kind it is biochemical. Conditions: FIG. 6B. Here is the method: as §1
Assay [3] has as its target Syk (Homo sapiens, UniProt P43405). The assay is described as follows: ADP-Glo kinase inhibition assay, Syk. The format is biochemical. Here is the method:
Syk kinase inhibition assays were run on 96-well plates using the ADP-Glo assay kit according to manufacturer's specifications. All kinase reactions were run using Kinase Assay Buffer III supplemented with DTT and MnCl2 as required by the kinase of interest to generate kinase reaction buffer. Stock solutions of kinase inhibitor in DMSO were diluted into 2× kinase reaction buffer and the final concentration of DMSO in each kinase reaction was held below 1%. […] Kinase inhibitors were incubated with kinase and substrate prior to addition of ATP for 20 min at room temperature (RT). After addition of ATP to the wells, the plate was incubated at 37° C. for 30-60 minutes depending on the kinase used. After incubation the plate was cooled to RT for 5 minutes prior to addition of 25 μL ADP-Glo reagent and incubation on a shaker for 40 minutes. After 40 minutes, 50 μL Kinase Detection reagent were added and the plate was protected from light while incubated on a shaker. After 30 min, the luminescence was recorded using a Neo2 plate reader and 1 sec integration of the signal. The background signal was subtracted from all readings and the signal was normalized to the maximum signal obtained in the absence of inhibitor. Data were plotted and inhibition curves fit using Graphpad software.

The target of assay [4] is EGFR (Homo sapiens, UniProt P00533). As to the kind of experiment: ADP-Glo kinase assay, EGFR. The format is biochemical. Here is the method: as §1
In assay [5] the target is T1, ZAP70 (Homo sapiens, UniProt P43403).
T1 sequence (P43403 1-619): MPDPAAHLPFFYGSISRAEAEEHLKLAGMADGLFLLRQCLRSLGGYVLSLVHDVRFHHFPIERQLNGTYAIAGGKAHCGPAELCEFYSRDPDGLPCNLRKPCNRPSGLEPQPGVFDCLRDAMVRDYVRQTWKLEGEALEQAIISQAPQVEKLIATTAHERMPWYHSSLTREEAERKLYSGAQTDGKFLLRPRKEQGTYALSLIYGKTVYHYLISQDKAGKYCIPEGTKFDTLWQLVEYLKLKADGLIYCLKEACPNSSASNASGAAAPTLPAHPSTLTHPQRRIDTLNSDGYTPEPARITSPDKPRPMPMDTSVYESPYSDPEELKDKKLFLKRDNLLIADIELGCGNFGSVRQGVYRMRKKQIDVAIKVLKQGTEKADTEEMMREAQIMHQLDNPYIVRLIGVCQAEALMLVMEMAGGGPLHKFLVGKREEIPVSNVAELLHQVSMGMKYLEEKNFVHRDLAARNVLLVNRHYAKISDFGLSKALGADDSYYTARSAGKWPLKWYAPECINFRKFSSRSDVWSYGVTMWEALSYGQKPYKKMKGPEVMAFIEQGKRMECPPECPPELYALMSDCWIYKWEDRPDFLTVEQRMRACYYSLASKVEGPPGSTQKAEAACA
The assay is described as follows: ADP-Glo kinase assay, ZAP70. In kind it is biochemical. The conditions noted are these: FIG. 6B. Here is the method: as §1

Assay [6] concerns healthy donor human RBCs. The assay is described as follows: Hemolysis (Hb release) induced by phosphatase inhibitors in healthy donor human RBCs. The format is cell-based. From the text: (§2) Cayman's hemoglobin colorimetric assay was used to quantitate the level of cell-free plasma hemoglobin in both patient plasma samples and in the above kinase-treated RBC supernatant samples according to the manufacturer's instruction.

Assay [7] deals with phosphorylated Band 3. As to the kind of experiment: Band 3 tyrosine phosphorylation in SCD RBC lysates (Western blot). The format is cell-based, human. The conditions noted are these: 1 μM S701, SCD RBC lysates, anti-pY Western blot. Here is the method: (§3) RBC ghosts were then prepared by mixing 150 μL of packed RBCs with 1500 μL of ice-cold ghost buffer (5 mM Na2HPO4, 1 mM EDTA, pH 8.0, containing 1 mM phenylmethylsulfonyl fluoride (PMSF) and 1% phosphatase cocktail inhibitors 2 and 3) and allowed to sit on ice for 30 min. Samples were centrifuged at 13000 rpm for 15 min at 4° C. and supernatants were removed. Ghost pellets were washed an additional 3×, after which 10 μL was removed for determination of protein concentration using Pierce™ Rapid Gold BCA Protein Assay (Thermo Fisher Scientific, A53226). Residual ghosts were solubilized in 4× Laemmli buffer (Bio-Rad) at a concentration of 1 […] and warmed to 30° C. for 30 min prior to storage at −20° C. until use.
(§4) Band 3 tyrosine phosphorylation was quantitated by loading 30 μL of each thawed sample onto a 10% SDS-PAGE gel and separating at 90, 120 and 150 V for 30, 45 and 20 minutes, respectively. Proteins were then transferred to a nitrocellulose membrane at 100 V for 2 hours, after which membranes were immunostained with anti-phosphotyrosine (1:1000, Cell Signaling, Inc.) or anti-actin (1:20000) antibodies dissolved in TBST (25 mM Tris, 140 mM NaCl, 3 mM KCl, 0.05% v/v Tween-20) containing 5% w/v milk. […] Band 3 tyrosine phosphorylation intensity/densitometry was quantitated using image J software.
On the technique in general: In western blotting, separated proteins are transferred to a membrane and probed.

In assay [8] the test system is SCD patient RBCs. As to the kind of experiment: Free plasma hemoglobin in SCD patient samples. The format is cell-based, human. The conditions noted are these: 1 μM S701, SCD patient samples. Here is the method: (§5) For evaluation of the effect of tyrosine kinase inhibitors on release of RBC-derived MPs from sickle cells suspended at 30% Hct in PBS-G, 500 μL washed RBCs were treated for 1 hour with the desired concentration of tyrosine kinase inhibitor or vehicle control, and then shaken at 1400 RPM for 4 h. Newly released microparticles were then separated from residual RBCs by centrifuging at 800 rcf for 10 minutes, collecting the supernatant, and analyzing the supernatant for RBC-derived MPs as described above.
as §2

The subject of assay [9] is SCD patient RBCs. As to the kind of experiment: Erythrocyte-derived microparticle release in SCD patient samples. The format is cell-based, human. Conditions: SCD patient samples incubated with 1 μM S701 (untreated SCD 18, healthy seven). Here is the method:
Plasma from sickle cell samples (see above) was centrifuged 2× at 2500 rcf for 15 minutes to remove platelets and 100 μL of supernatant containing MPs was incubated for 20 minutes on ice with 0.5 μL of BV421 mouse-anti-human 235a antibody (anti-glycophorin A; BD Biosciences #562938). Samples were diluted with 1000 μL of stain buffer (BD Biosciences #554656), transferred to BD Trucount™ tubes (BD Biosciences #340334) and analyzed on an Attune NxT Flow Cytometer by utilizing violet fluorescent trigger channel. The absolute number of RBC-derived microparticles was then calculated using the following formula,
as §5

The subject of assay [10] is SCD patient RBCs. The assay is described as follows: RBC velocity through microfluidic capillary. Conditions: concentrations as low as 50 nM, various levels of oxygenation. In kind it is cell-based, human. Here is the method:
Microfluidic capillary devices were fabricated with polydimethylsiloxane (PDMS) using standard soft photolithography techniques. Capillaries were constructed with a straight channel (w=75 μm, h=6.52 μm) containing a constriction (wc=5 μm and h=6.52 μm). To control the oxygen level inside the channel, the microfluidic device was submerged in a customized glass chamber filled with sodium sulfite solution (0M, 0.01M, 0.1M or 1M) (Sigma-Aldrich). The oxygen level was calibrated using 25 μM of tris(2,2′-bipyridyl)dichlororuthenium(II) hexahydrate (an O2 indicator, Sigma-Aldrich) then converted into a PO2 value using the Stern-Volmer equation, I0/I=1+PO2×Kq, where I^0 is the maximum fluorescence intensity and Kq is the quenching constant. The calibration results are obtained.
Sickle cell blood samples were obtained from five patients (n=5, age 4-9 years old) and RBCs were isolated by centrifugation. […] For quantitation of RBC velocity in a microfluidic capillary, the RBC suspension was injected into the capillary at a constant pressure of 1.6 psi, and the velocity of the RBCs in the constriction was recorded using a high-speed video camera (Phantom Miro M120, 1900 frames per second) mounted on an inverted microscope (Leica DMI 6000B). Data were analyzed using Phantom Camera Control software.

The subject of assay [11] is Syk phosphorylation of Band 3. The assay is described as follows: Band 3 tyrosine phosphorylation induced in healthy donor RBCs by OV (Western blot). The format is cell-based. The conditions noted are these: Homo sapiens; healthy donor RBCs treated with OV; read-out: in vitro IC50 against Syk phosphorylation of Band 3. Here is the method:
as §3, §4

pIC50: −log10 of the molar value. Like-named read-outs stand apart in the source and are kept apart here.

Sequence of EGFR (P00533 25-1210): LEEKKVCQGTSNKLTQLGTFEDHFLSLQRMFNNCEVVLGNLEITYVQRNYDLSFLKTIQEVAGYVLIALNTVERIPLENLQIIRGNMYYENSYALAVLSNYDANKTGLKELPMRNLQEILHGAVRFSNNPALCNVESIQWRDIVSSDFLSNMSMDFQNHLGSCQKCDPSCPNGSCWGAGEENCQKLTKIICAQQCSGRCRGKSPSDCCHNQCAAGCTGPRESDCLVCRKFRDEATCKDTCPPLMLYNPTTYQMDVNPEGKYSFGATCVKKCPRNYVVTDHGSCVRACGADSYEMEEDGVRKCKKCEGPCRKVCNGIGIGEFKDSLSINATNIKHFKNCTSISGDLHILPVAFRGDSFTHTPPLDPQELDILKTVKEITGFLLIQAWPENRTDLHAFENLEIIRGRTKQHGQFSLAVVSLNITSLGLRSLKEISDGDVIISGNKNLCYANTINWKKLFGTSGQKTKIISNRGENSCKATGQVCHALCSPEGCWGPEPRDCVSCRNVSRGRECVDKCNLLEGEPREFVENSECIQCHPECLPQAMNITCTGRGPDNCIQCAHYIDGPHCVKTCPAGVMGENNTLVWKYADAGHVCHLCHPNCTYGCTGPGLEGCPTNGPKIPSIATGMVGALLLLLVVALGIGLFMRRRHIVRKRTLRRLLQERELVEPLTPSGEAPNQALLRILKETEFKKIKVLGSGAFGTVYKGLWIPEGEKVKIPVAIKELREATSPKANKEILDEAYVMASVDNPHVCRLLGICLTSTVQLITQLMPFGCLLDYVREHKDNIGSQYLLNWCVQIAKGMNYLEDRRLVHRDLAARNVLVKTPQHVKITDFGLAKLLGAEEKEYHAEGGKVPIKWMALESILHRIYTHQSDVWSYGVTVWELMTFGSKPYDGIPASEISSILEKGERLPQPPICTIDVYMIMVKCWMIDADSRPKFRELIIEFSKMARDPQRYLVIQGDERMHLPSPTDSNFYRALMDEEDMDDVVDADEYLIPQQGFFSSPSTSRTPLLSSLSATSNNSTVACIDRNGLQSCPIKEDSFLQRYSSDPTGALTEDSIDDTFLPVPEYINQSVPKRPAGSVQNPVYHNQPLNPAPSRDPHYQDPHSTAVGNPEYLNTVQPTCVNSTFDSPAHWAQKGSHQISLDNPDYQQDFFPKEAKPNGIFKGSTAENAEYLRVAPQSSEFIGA
Sequence of SRC (P12931 whole entry): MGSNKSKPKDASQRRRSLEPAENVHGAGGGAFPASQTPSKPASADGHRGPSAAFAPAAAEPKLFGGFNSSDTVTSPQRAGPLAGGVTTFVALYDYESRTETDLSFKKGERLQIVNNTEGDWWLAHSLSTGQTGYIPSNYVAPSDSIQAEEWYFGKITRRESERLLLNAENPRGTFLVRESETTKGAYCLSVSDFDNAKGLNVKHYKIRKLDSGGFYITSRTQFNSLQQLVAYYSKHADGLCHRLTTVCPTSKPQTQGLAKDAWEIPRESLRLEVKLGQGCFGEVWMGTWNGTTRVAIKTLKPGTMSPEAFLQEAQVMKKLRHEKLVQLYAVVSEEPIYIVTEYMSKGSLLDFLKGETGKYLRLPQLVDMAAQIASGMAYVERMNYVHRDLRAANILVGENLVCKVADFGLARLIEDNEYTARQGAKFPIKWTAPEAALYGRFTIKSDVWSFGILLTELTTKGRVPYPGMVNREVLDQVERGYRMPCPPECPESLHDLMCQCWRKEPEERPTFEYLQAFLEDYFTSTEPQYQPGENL
Sequence of Lyn A (P07948 whole entry): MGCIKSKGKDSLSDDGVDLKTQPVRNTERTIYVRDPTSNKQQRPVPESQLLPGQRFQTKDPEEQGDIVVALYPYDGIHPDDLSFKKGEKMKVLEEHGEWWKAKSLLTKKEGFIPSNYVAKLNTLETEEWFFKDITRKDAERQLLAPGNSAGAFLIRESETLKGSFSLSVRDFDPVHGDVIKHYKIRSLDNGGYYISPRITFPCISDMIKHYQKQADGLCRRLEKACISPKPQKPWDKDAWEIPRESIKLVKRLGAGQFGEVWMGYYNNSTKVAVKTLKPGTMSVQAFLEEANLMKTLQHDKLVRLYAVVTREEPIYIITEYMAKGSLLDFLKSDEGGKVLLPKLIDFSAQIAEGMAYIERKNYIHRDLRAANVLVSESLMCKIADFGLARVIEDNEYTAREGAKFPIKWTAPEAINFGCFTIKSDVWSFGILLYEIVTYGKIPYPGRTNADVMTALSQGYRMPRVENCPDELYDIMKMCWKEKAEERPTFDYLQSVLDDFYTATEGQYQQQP

For the molecule `COc1ccc(Nc2nc(Nc3cccc4[nH]ccc34)ncc2F)c(-c2ccc(O)c(O)c2)c1` [S602, 2′-((2-((1H-indol-4-yl)amino)-5-fluoropyrimidin-4-yl)amino)-5′-methoxy-[1,1′-biphenyl]-3,4-diol], the “inhibitory effect on SRC” value in [1] is on record as “very significantly higher concentrations to have an impact”. Further, in assay [2], the “inhibitory effect on Lyn A” value is “very significantly higher concentrations to have an impact”. The “Syk inhibition compared to S701” value in assay [3] (FIG. 6B) is “even better IC50 value for inhibiting Syk as compared to S701”. Moreover, the “inhibitory effect on EGFR” value in assay [4] was “very significantly higher concentrations to have an impact”. In addition, the “inhibitory effect on ZAP 70” value in assay [5] was “very significantly higher concentrations to have an impact”.
Consider `COc1cc(Nc2ncc(F)c(NC(=O)c3cc(O)c(O)c(O)c3)n2)cc(OC)c1OC` [S701, N-(5-fluoro-2-((3,4,5-trimethoxyphenyl)amino)pyrimidin-4-yl)-3,4,5-trihydroxybenzamide], for which the percent inhibition of hemolysis at 5 µM came to 50% in [6] (5 μM S701, Diamide, read-out: inhibition of hemolysis, Diamide); 44% in assay [6] (5 μM S701, Phenylhydrazine, read-out: inhibition of hemolysis, Phenylhydrazine); 25% in assay [6] (5 μM S701, phosphatase inhibitor OV, read-out: inhibition of hemolysis, OV). Further, the “phosphorylated Band 3” value in assay [7] was “notable decrease in phosphorylated Band 3”. Further, the negative logarithm of the IC50 (pIC50) in assay [3] (cell-free) was 6.24; in [11], about 5.30. The “inhibitory effect on EGFR” value in assay [4] is “has to be in really high concentrations to have any inhibitory effect”. The “decrease of concentration of free plasma hemoglobin” value in assay [8] is 47%. The “number of MPs released per μL of plasma” value in assay [9] is reported as “five”. The “RBC velocity through a 5 μm tube” value in assay [10] is recorded as “increased RBC velocity”.
